We go through one compound from PMC548150, “Reversal of a full-length mutant huntingtin neuronal cell phenotype by chemical inhibitors of polyglutamine-mediated aggregation” (BMC Neuroscience, 2005).

Structures are written as SMILES.

What is called IC50 is the concentration needed to halve the response being measured.

Assay [1] has as its system hippocampal slice cultures from the R6/2 mouse. Details: method as in PMID 12891671. The conditions noted are these: 30 μM; cited from earlier work.
Assay [2] addresses T1, Q58-htn 1–171 amino terminal fragment (GST-Q58-Htn cleaved by thrombin) (Homo sapiens, UniProt P42858, INS38QQQQQQQQQQQQQQQQQQQQQQQQQQQQQQQQQQQQQ).
T1 construct: the amino terminal fragment 1–171 of mutant huntingtin; GST (N, cleaved yes); made in house; host or cells: E. coli BL21 (pGEX-2TK vector)
Description: in vitro aggregation of amino-terminal mutant huntingtin fragment (filter retardation dot blot). It counts as biochemical. Conditions: GST-Q58-Htn 20 μg/ml pre-incubated with thrombin, 24 h room temperature; average of at least two independent experiments; read-out: IC50 (half-maximal inhibition) of Q58-Htn aggregation. The method, then:
In our primary screen (Figure 1A), GST-Q58-Htn (20 μg/ml) was mixed with thrombin (0.5 unit/μg GST-Q58-Htn) and immediately dispensed into a 96-well PCR plate containing compounds diluted to a final concentration of 100 μM. Incubation was continued for 24 hours at room temperature to allow aggregate formation. The aggregation was stopped by 2% SDS/10 mM 2-mercaptoethanol followed by boiling for 5 minutes. The mixture was filtered through a cellulose acetate membrane by using a 96-well ELIFA dot blot apparatus. The aggregates retained on the membrane were detected and quantified by immunoblotting and subsequent image analysis. Congo Red, a known huntingtin aggregation inhibitor, was used as the positive control.
A recombinant pGEX-2TK expression vector with cDNA fragment encoding amino terminal 171 amino acids of human huntingtin with a polyglutamine tract of 58 was used to prepare the GST-Q58-htn fusion protein. The GST-Q58-htn was overexpressed in BL21 cells and purified by affinity chromatography over glutathione-sepharose 4B beads (Amersham Pharmacia Biotech). The purified proteins were stored at concentration of 2.0 mg/ml at -80°C.
For primary screening of the chemical library, 1 μl of 4.0 mM small compound stock, diluted from the original plates, was placed in wells of 96-well plates. The fusion protein, GST-Q58-Htn was mixed with thrombin (0.5 unit/1 μg protein) at a concentration of 20 μg/ml in a buffer of 50 mM Tris-HCl, pH 8.0, 100 mM NaCl, 2.5 mM CaCl2, 1.0 mM EDTA. The mixture was immediately distributed into the 96-well plates containing diluted compounds at 40 μl/well and mixed well. The final concentration of the small compounds was 100 μM. After 24 hours incubation at room temperature, the reaction was stopped by adding 10 μl of 10% SDS/50 mM 2-mercaptoethanol to each well followed by boiling in a PCR machine for 5 minutes. The mixture from each well was filtered through a cellulose acetate membrane ((0.2 μm, GE Osmonics labstore, Minnetonka MN) by using a 96-well ELIFA (Pierce Biotech). The aggregates retained on the membrane were detected by a specific anti-huntingtin antibody, HP1 (diluted 1:1000), followed by incubation with peroxidase conjugated anti-rabbit antibody (diluted 1:10,000, Sigma). Signals from SDS insoluble aggregates were scanned and quantified by using ImageMaster Totalab image analysis software (Amersham Pharmacia Biotech). In the secondary screening, all steps were the same except the final concentration of compound in each well was reduced to 10 μM and the GST-Q58-Htn/thrombin mixture was preincubated for 45-minutes at room temperature and clarified by centrifugation at 28,000 × g for 30 minutes before being added to the test wells. For IC50 determinations, the in vitro aggregation assay and signal quantification were performed as in the second screening but varying the final concentration of input drug. The data for each inhibitor were obtained from at least two independent experiments in which every sample was analyzed in triplicate with Prism 3.0 software (Graphpad Software, Inc., San Diego, CA).

T1 sequence (P42858 with tags, fused parts or gaps with the stated changes limits assumed): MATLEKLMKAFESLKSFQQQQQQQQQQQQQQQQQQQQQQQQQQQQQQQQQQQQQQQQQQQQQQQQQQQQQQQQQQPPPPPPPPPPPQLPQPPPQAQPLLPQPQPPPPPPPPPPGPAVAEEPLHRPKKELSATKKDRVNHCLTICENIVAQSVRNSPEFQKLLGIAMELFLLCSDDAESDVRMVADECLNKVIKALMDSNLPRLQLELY

As to `CN(C)c1ccc(O)c2c1C[C@H]1C[C@H]3[C@H](N(C)C)C(O)=C(C(N)=O)C(=O)[C@@]3(O)C(O)=C1C2=O` [minocycline], the “effect on huntingtin exon 1 aggregation” value in assay [1] is “inhibitory effect”. In addition, in assay [2], the IC50 was determined as 43 µM.
